Assay results: paper PMC3325759 (Journal of Natural Products, 2011)

Key:
[1] = molecular target: human recombinant CB1 receptor (Homo sapiens, UniProt P21554); assay: biochemical; format: binding
[2] = system: H-460 human lung cell lines; assay: Cytotoxicity to H-460 cells; format: cell-based; settings: all tested concentrations (up to 20 µg/mL)

Chain of human recombinant CB1 receptor (P21554 whole entry): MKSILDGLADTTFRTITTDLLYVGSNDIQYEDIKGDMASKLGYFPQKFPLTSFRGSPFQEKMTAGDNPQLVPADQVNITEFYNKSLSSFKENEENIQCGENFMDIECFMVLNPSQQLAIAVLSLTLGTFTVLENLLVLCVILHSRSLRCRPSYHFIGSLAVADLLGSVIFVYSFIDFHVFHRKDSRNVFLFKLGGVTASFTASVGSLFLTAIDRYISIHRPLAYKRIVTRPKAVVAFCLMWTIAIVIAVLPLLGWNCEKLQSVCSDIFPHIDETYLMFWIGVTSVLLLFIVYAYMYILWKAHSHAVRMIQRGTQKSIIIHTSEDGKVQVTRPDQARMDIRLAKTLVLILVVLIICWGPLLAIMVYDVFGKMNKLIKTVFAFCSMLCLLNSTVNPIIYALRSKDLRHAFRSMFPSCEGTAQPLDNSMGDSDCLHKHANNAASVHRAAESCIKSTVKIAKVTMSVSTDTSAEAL

SMILES: CCCCCCCCCCCCC/C=C/CCC(=O)N(C)[C@H](CO)COC [compound 3, serinolamide A]
- EC50 [1]: 2.3 µM

SMILES: C=C(CCCCCCCCCCCCC)CCCC(=O)O/C=C\COC(C)=O [compound 4, propenediester]
- affinity for the CB1 cannabinoid receptor (in words) ([1]; radioligand binding assay): completely inactive
- cytotoxicity (in words) [2]: inactive
